Results on nine compounds are retold here after paper PMC5978685, “Design, Synthesis, and Evaluation of Novel Immunomodulatory Small Molecules Targeting the CD40–CD154 Costimulatory Protein-Protein Interaction” (Molecules : A Journal of Synthetic Chemistry and Natural …, 2018).

The target of one assay is T1, BAFFR–BAFF (Homo sapiens, UniProt Q9Y275).
T1 construct: purchased Enzo Life Sciences
Briefly: cell-free ELISA-type binding inhibition assay, BAFFR–BAFF. As for the experimental part: (§1) In parallel with the CD40–CD154 assay, the ability of these compounds to inhibit other TNFSFR–TNFSF PPIs, including OX40–OX40L, BAFFR–BAFF, and TNF-R1–TNF-α, was also assessed (Figure 3B–D).
(§2) Binding inhibition assays were performed in a 96-well cell-free format as described before. Briefly, microtiter plates (Nunc F Maxisorp, 96-well; Thermo Fisher Scientific, Waltham, MA, USA) were coated overnight at 4 °C with 100 μL/well of Fc-conjugated receptors diluted in PBS pH 7.2. This was followed by blocking with 200 μL/well of blocking solution (PBS pH 7.2, 0.05% Tween-20, 1% BSA) for 1 h at RT. Then, plates were washed twice using washing solution (PBS pH 7.4, 0.05% Tween-20) and tapped dry before the addition of the appropriate FLAG tagged ligands along with different concentrations of tested dyes diluted in binding buffer (100 mM HEPES, 0.005% BSA pH 7.2) to give a total volume of 100 μL/well. After 1 h incubation, three washes were conducted, and anti-FLAG HRP conjugate was used to detect the bound FLAG-tagged ligand. Plates were washed four times before the addition of 120 μL/well of HRP substrate TMB (3,3′,5,5′-tetramethylbenzidine) and kept in the dark for up to 15 min. The reaction was stopped using 30 μL of 1M H2SO4, and the absorbance value was read at 450 nm. The concentrations of receptors used were 0.3 μg/mL for CD40, TNF-R1, and BAFFR; 0.6 μg/mL for OX40. The concentrations of the ligands were fixed at 0.02 μg/mL for CD154 and TNF-α, 0.06 μg/mL for OX40L, and 0.03 μg/mL for BAFF. These values were selected following preliminary testing to optimize response (i.e., to produce a high-enough signal at conditions close to half-maximal response, EC50). […] To verify that inhibition is not due to colloidal aggregation, CD40 binding inhibition was also measured in the presence of the non-ionic detergent Triton-X 100 (0.01%), as recommended for the detection of such effects.
(§3) All binding inhibition and cell assays were tested in duplicate or triplicate per plates, and assays were performed as at least three independent experiments. As before, binding and cytotoxicity data were converted to percent inhibition and fitted with standard log inhibitor vs. normalized response models using nonlinear regression in GraphPad Prism (GraphPad, La Jolla, CA, USA) to establish half-maximal (median) inhibitory concentration (IC50) or median lethal concentration (LC50) values. Cell assay data were fitted with a similar model that also allowed for a variable slope using the log inhibitor vs. normalized response (variable slope) model from Prism with a Hill slope (n) shared across all compounds. Cell assays and draining lymph node data were analyzed by one-way repeated-measures analysis of variance (ANOVA) followed by Dunnett’s multiple comparison test as a post hoc test for individual differences using GraphPad Prism and a significance level of p < 0.05 for all comparisons.
(§4) Data are (counterclockwise) for human CD40–CD154 (CD40L) (A); OX40–OX40L (B); BAFFR–BAFF (C); and TNF-R1–TNFα (D) and were fitted with standard binding curves. Data are average ± SD (normalized to percent binding) for n = 3 independent experiments with duplicates for each condition.

A further assay deals with T2, CD40–CD154 (CD40L) (Homo sapiens, UniProt P29965).
T2 construct: purchased Enzo Life Sciences
T2 sequence (P29965 116-261 limits assumed): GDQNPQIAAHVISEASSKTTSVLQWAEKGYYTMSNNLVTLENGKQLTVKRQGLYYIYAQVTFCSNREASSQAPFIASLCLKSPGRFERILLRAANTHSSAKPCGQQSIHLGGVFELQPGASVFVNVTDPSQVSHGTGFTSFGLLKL
Briefly: cell-free ELISA-type binding inhibition assay, CD40–CD154. Particulars: cell-free CD40–CD154 binding inhibition; read-out: CD40 IC50.
From the text: As a first assessment, the CD40–CD154 inhibitory activity of compounds 6–19 (Figure 2, Table 1) was quantified using a cell-free in vitro binding inhibition assay as described before. Data fitted with typical sigmoidal concentration dependence curves (log inhibitor versus response model in GraphPad Prism, Hill slope n = 1) are summarized in Figure 3A. […] Polymolecular conglomeration and/or aggregation is often a cause of promiscuous inhibition in screening assays. Therefore, just as in our previous work, we checked for this, and we confirmed for several compounds that inhibition due to aggregation is not the case by retesting inhibitory activity in the presence of a non-ionic detergent (Triton-X 100, 0.01%) as recommended for the detection of such effects.
as §2, §3, §4
Background: In an ELISA, binding on a coated surface is turned into a signal by an enzyme label.

The next assay addresses T3, TNF-R1–TNFα (Homo sapiens, UniProt P01375).
T3 construct: purchased Enzo Life Sciences
Nature of the assay: cell-free ELISA-type binding inhibition assay, TNF-R1–TNFα. The following applies: cell-free TNF-R1–TNFα binding inhibition; read-out: TNF IC50. As for the experimental part:
as §1, §2, §3, §4

The target in another assay is T4, OX40–OX40L (Homo sapiens, UniProt P23510).
T4 construct: purchased Enzo Life Sciences
T4 sequence (P23510 51-183 limits assumed): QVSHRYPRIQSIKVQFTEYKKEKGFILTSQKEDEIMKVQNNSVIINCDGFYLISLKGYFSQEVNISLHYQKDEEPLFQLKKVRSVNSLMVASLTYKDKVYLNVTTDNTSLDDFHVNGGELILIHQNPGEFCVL
Briefly: cell-free ELISA-type binding inhibition assay, OX40–OX40L. As for the experimental part:
as §1, §2, §3, §4

Assay [1] deals with alloantigen-induced T cell response in draining popliteal lymph node. Briefly: alloantigen-induced T cell expansion in draining lymph node. Format: in vivo, mouse (Balb/c). The following applies: Balb/c mice, DBA-2 splenocytes in footpad; 10–20 mg/kg s.c. b.i.d.; p < 0.0001 vs vehicle. Here is the method:
The most promising compounds of the present series were evaluated for in vivo activity using the same model of alloantigen-induced T cell expansion in the draining lymph nodes (DLNs) that was described before. This procedure involved injection of splenocytes isolated from DBA-2 mice into the footpad of Balb/c recipients. Within three full days, this causes a significant increase in the number of cells in the draining popliteal lymph node, and this is inhibited by compounds with immunosuppressive activity.
The ability to inhibit alloantigen-induced T cell response in a draining lymph node was tested as described before. In brief, BALB/c mice (10–12 weeks old, female) received a footpad injection of 1 × 10^7 splenocytes isolated from DBA-2 mice (10–12 weeks old, male). CD154 antibody (MR-1; 20 mg/kg, day −1 and 0) or test compounds (20–60 mg/kg; b.i.d. from day −1 to 3, in 20% HPβCD) were administered s.c., and the draining popliteal lymph nodes (DLNs) were collected 3 days after the alloantigen challenge. DLN cells were counted and data are shown as mean ± SD (n = 3–4 per group).
as §3
Figure 6 Inhibition of alloantigen-induced T cell response in a draining lymph node by compounds 6, 15, 18, and 19. Mice (Balb/c) received a footpad injection of allogeneic splenocytes (isolated from DBA-2 mice) and were treated with anti-CD154 antibody (MR-1; 20 mg/kg, day −1 and 0) or compounds as shown (10–40 mg/kg, b.i.d. from day −1 to 3, s.c. in 20% HPβCD). Draining (popliteal) lymph nodes were collected three days after the alloantigen challenge and cells were counted. Data are shown as mean ± SD. Significant differences compared to vehicle-treated controls are indicated by asterisks (**** p < 0.0001; one-way ANOVA followed by Dunnett’s multiple comparison test).

T1 sequence (Q9Y275 134-285 limits assumed): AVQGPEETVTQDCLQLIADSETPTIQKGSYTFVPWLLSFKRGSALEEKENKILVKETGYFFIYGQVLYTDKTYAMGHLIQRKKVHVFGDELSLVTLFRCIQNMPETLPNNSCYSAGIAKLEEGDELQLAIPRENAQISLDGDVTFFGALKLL
T3 sequence (P01375 85-233 limits assumed): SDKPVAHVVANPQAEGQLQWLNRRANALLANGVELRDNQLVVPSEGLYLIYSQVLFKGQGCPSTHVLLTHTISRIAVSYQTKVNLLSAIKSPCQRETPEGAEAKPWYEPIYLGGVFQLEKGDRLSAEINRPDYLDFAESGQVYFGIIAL

One may read the IC50 as the point on the concentration scale where inhibition reaches its midpoint. `O=C(Nc1ccc(-c2ccc(C(=O)Nc3cccc4c(S(=O)(=O)O)cccc34)cc2)cc1)c1ccc([N+](=O)[O-])cc1` [Compound 7, 5-(4′-(4-Nitrobenzamido)-[1,1′-biphenyl]-4-carboxamido)naphthalene-1-sulfonic acid]: the IC50 at BAFFR–BAFF amounted to 2.01 µM; at CD40–CD154 (CD40L), 0.299 µM; at TNF-R1–TNFα, 555 µM; at OX40–OX40L, 9.34 µM.
Turning to `O=C(Nc1ccc(-c2ccc(C(=O)Nc3cccc4cccc(S(=O)(=O)O)c34)cc2)cc1)c1ccc(C(F)(F)F)cc1` [Compound 8, 8-(4′-(4-(trifluoromethyl)benzamido)biphenyl-4-ylcarboxamido)naphthalene-1-sulfonic acid], the IC50 was determined as 42.2 µM at BAFFR–BAFF, 57.8 µM on CD40–CD154 (CD40L), 61.1 µM at TNF-R1–TNFα and 10.1 µM at OX40–OX40L.
In the case of `COC(=O)c1cccc2c(NC(=O)c3ccc(-c4ccc(NC(=O)c5ccc([N+](=O)[O-])cc5)cc4)cc3)cccc12` [Compound 9, Methyl 5-(4′-(4-nitrobenzamido)-[1,1′-biphenyl]-4-carboxamido)-1-naphthoate], the half-inhibitory concentration (IC50) is 686 µM on BAFFR–BAFF, 56 µM on CD40–CD154 (CD40L), 796 µM on TNF-R1–TNFα and > 1000 µM at OX40–OX40L.
For the compound `O=C(Nc1ccc(-c2ccc(C(=O)Nc3ccc(S(=O)(=O)O)c4cccc(S(=O)(=O)O)c34)cc2)cc1)c1ccc([N+](=O)[O-])cc1` [Compound 10, 4-(4′-(4-Nitrobenzamido)-[1,1′-biphenyl]-4-carboxamido)naphthalene-1,5-disulfonic acid], the half-inhibitory concentration (IC50) on BAFFR–BAFF was determined as 440 µM; at CD40–CD154 (CD40L), 68.3 µM; at TNF-R1–TNFα it was 688 µM; at OX40–OX40L, 135 µM.
Consider `O=C(Nc1cccc2cccc(S(=O)(=O)O)c12)c1ccc(-c2ccc(NC(=O)c3ccc([N+](=O)[O-])cc3[N+](=O)[O-])cc2)cc1` [Compound 12, 8-(4′-(2,4-Dinitrobenzamido)-[1,1′-biphenyl]-4-carboxamido)naphthalene-1-sulfonic acid], for which the concentration for half-maximal inhibition (IC50) at BAFFR–BAFF was 38.1 µM; at CD40–CD154 (CD40L) it was 50.5 µM; at TNF-R1–TNFα it was 61.7 µM; at OX40–OX40L, 10.3 µM.
In the same order, the values of `COC(=O)c1ccc(C(=O)Nc2ccc(-c3ccc(C(=O)Nc4cccc5cccc(S(=O)(=O)O)c45)cc3)cc2)cc1[N+](=O)[O-]` [Compound 13, 8-(4′-(4-(Methoxycarbonyl)-3-nitrobenzamido)biphenyl-4-ylcarboxamido)naphthalene-1-sulfonic acid] are 5.27 µM, 0.39 µM, 674 µM and 86.2 µM.
In the case of `Cc1cc(NC(=O)c2ccc([N+](=O)[O-])cc2)ccc1-c1ccc(C(=O)Nc2cccc3cccc(S(=O)(=O)O)c23)cc1C` [Compound 16, 8-(2,2′-Dimethyl-4′-(4-nitrobenzamido)-[1,1′-biphenyl]-4-carboxamido)naphthalene-1-sulfonic acid], the IC50 amounted to 26.7 µM on BAFFR–BAFF, 44.8 µM at CD40–CD154 (CD40L), 61.5 µM on TNF-R1–TNFα and 7.28 µM at OX40–OX40L.
In the same order, the values of `O=C(Nc1ccc2cc(C(=O)Nc3cccc4cccc(S(=O)(=O)O)c34)ccc2c1)c1ccc([N+](=O)[O-])cc1` [Compound 17, 8-(6-(4-Nitrobenzamido)-2-naphthamido)naphthalene-1-sulfonic acid] are 81.4 µM, 57.5 µM, 118 µM and 36.6 µM.
Consider `COC(=O)c1ccc(C(=O)Nc2ccc(-c3ccc(C(=O)Nc4cccc5cccc(S(=O)(=O)O)c45)cc3)nc2)cc1` [Compound 19, 8-(4-(5-(4-(Methoxycarbonyl)benzamido)pyridin-2-yl)benzamido)naphthalene-1-sulfonic acid], for which the IC50 at BAFFR–BAFF was determined as 13.8 µM; on CD40–CD154 (CD40L), 2.41 µM; at TNF-R1–TNFα it was 182 µM; at OX40–OX40L, 6.97 µM. The “inhibition of alloantigen-induced T cell expansion in draining lymph node” value in assay [1] was “inhibited the alloantigen-induced T cell response in this model in statistically significant manner”.
